Laboratory results as given in US12565522B2, “Micropeptide HMMW and application thereof” (NANJING ANJI BIOTECHNOLOGY CO., LTD., priority 2019, dated 2026).
No end group written: not given here.

Tests used:
Test in all cases: cells
Type in all cases: cell-based, human
Conditions in all cases: 1 to 32 μM, vs negative control, dose-dependent
[1] = tested on: SCC4 cells of head and neck cancer
Experimental: (§1) After SCC4 cells of head and neck cancer, SW579 cells of thyroid cancer, A549 cells of lung cancer, TE13 cells of esophageal squamous cell carcinoma, MGC803 cells of stomach cancer, MDA-MB-231 cells of breast cancer, UOK262 cells of kidney cancer and A431 cells of skin cancer of human were cultured in a 37 DEG C. 5% CO2 incubator until the density was 90%, they were digested and collected by trypsin, the cells were re-suspended in a culture solution and counted under a microscope, the concentration of the cells was adjusted to 3.0×10^4 cells/mL, and the cell suspension was inoculated to 96-well plates, 100 μL per well, and cultured in a 37 DEG C. 5% CO2 incubator overnight. After the cells were completely adherent, different doses of micropeptides HMMW I to IX were added as drug groups, taxol was used as a positive control group, and the culture solution without any drug was used as a blank control group. They were diluted with the culture solution till predetermined concentrations. The diluted solutions were added to 96-well plates, respectively, 100 μL per well, and incubated in a 37 DEG C. 5% CO2 incubator for 48 h. 20 μL of 5 mg/mL MTT was added to each well of the 96-well plates, and the culture was continued for 4 h. The culture medium was sucked away, and 100 μL of DMSO was added to each well for dissolution. Absorbance was detected by ELIASA at detection wavelength 570 nm and reference wavelength 630 nm, and proliferation inhibition (PI) was calculated according to Formula PI (%)=1−drug group/negative group. The test was independently repeated three times. The results obtained from the test were expressed with mean±SD and statistical t test was done. *P<0.05 means significant difference, and **P<0.01 means very significant difference.

[2] = tested on: MGC803 cells of stomach cancer
Experimental: as §1

[3] = tested on: UOK262 cells of kidney cancer
Experimental: as §1

[4] = tested on: A549 cells of lung cancer
Experimental: as §1

[5] = tested on: MDA-MB-231 cells of breast cancer
Experimental: as §1

[6] = tested on: SW579 cells of thyroid cancer
Experimental: as §1

[7] = tested on: A431 cells of skin cancer
Experimental: as §1

[8] = tested on: TE13 cells of esophageal squamous cell carcinoma
Experimental: as §1

Measured: inhibition of proliferation

MERAGVPGFSPRRSSVEAKMQSTSCSVRKSSTVTAWPAVVLLLSWGQRRGG-OH [HMMW-I]
significantly inhibit: all assays above
